Laboratory results as given in patent US20220104481A1, “CRYOPRESERVATION OF STEM CELLS” (TiGenix, S.A.U., priority 2019, published 2022).
“Also recorded” adds a separate entry of the source.

Assays:
Format in all cases: cell-based, human
[1] = tested on: ASCs; assay: Post-thaw treatment with NAC in plating medium: cell growth after thawing
Procedure: A 600 mM stock of NAC (SIGMA) was prepared in Milli-Q water (Millipore). This stock was used for pre-treatment and post-treatment by adding directly 50 μL stock solution per well into 5 mL of medium, making a final concentration of 6 mM. For 2 mM, only 16.7 μL were added per well, and in the case of 12 mM, 100 μL of stock were added. DMSO was used as the vehicle for sc79 and LY294. The effect of post-thaw treatment with different concentrations of NAC (post-thaw NAC treatment) on cell growth was also studied. ASCs were frozen (without NAC pretreatment), thawed as discussed above, and then treated with three different NAC concentrations (2, 6 and 12 mM) in complete DMEM prior to plating, and the cell numbers at day 4, 11 and 14 were analysed.

[2] = tested on: ASCs; assay: ASC identity assay by flow cytometry (CD29, CD73, CD90, CD105); conditions: 6 mM NAC pretreatment; two weeks in culture post-thawing; donor A (FIG. 7)
[3] = tested on: ASCs; assay: ASC proliferation assay: viable cell density (trypan blue count) after thaw of pretreated ASCs; conditions: for number of viable cells: ASCs pretreated with 6 mM NAC before freezing
Procedure: ASCs from donor A were thawed by warming the vials in a 37° C. bath and diluting the freezing medium containing DMSO with fresh complete DMEM (DMEM/F-12 media—GlutaMAX™-I, Gibco, supplemented with 100 μg/mL penicillin/streptomycin and 10% FBS). Cells were centrifuged at 450 g for 6 minutes at room temperature to eliminate leftover DMSO and plated in T-175 flasks at 20.000 cells/cm^2 in complete DMEM. 24 hours post-thaw, the cells were treated with the suitable concentrations of the compounds indicated in the table below for 24 hours: Following the pretreatment step, the medium was removed, the cells were washed with PBS and trypsinized using trypsin-EDTA 0.25% (ThermoFisher) for 8 minutes at 37° C. After trypsin inactivation with complete DMEM, cells were harvested and centrifuged prior to resuspension in freezing medium (FBS with 10% DMSO), and frozen into 500,000 or 1 million cells per vial and stored in liquid nitrogen for further use. Specifically, the cells were frozen at −80° C. for 24 hours in a Cool Cell® device (BioCision) and then transferred to a liquid nitrogen storage container. All experiments were performed in incubators and 37° C., 5% CO2. ASCs pretreated with NAC according to the methods described in Example 2 from donor A or donor B final drug substance (FDS) were thawed by warming the vials in a 37° C. bath and quickly diluting the freezing medium containing DMSO (FBS with 10% DMSO) with fresh complete DMEM. Cells were centrifuged at 450 g for 6 minutes at room temperature to eliminate leftover DMSO, and plated in P6-well plates (Falcon #353046) in triplicates at […] in 5 mL of complete DMEM per well. Cells were washed with 1×PBS and trypsinized using trypsin-EDTA 0.25% (ThermoFisher) for 8 minutes at 37° C. After trypsin inactivation using complete DMEM, cells were harvested, centrifuged and resuspended in fresh DMEM; triplicate wells were unified as a single sample for counting purposes. Cells were counted in triplicates at 24 hours, 96 hours and 7 days after plating using an Invitrogen Countess Automated Cell Counter (Invitrogen) and adding trypan blue as a viability stain (FIG. 4A). The calculation of cell density was done using the count of viable ASC (negative for trypan blue) per surface unit (cm^2).

[4] = tested on: CD206 and CD163 on mature dendritic cells; assay: Surface expression of phagocytic receptors CD206 and CD163 by mDC co-cultured with ASCs (flow cytometry); conditions: NAC-pretreated ASCs, donors A and B (FIGS. 13, 14)
Procedure: After differentiation in monoculture or co-culture in vitro (the differentiation conditions, including the cytokines used, concentrations and times of differentiation, are provided in Example 7), macrophages and mDC were harvested using 0.05% trypsin-EDTA for 10 minutes at 37° C., after supernatants were collected and frozen for future cytokine and/or HPLC analysis. After mDC were counted, they were distributed into 96-well V bottom plates for staining (Nunc #249570). Cells were incubated in Blue MACS buffer with 1% human serum for 15 minutes on ice, to block Fcγ receptor-mediated nonspecific antibody binding. Subsequently, cells were stained for 20 minutes on ice with the following antibody mixes (staining in 50 μL of 1:10 antibody dilution; except for CD64, which was 1:20 dilution): Cell viability was assessed by addition of 5 μL of 7AAD per well and staining for 10 minutes on ice, and samples were acquired in a BD Fortessa cytometer. Results were analysed in FSC Express software.

CC(=O)N[C@@H](CS)C(=O)O [NAC, N-Acetylcysteine]
number of viable cells ([1]; post-thaw treatment with 2 mM NAC, 7 days of culture (FIG. 6)): ~6,300 cells/cm^2 | number of viable cells ([1]; post-thaw treatment with 2 mM NAC, 11 days of culture (FIG. 6)): ~18,700 cells/cm^2 | number of viable cells ([1]; post-thaw treatment with 2 mM NAC, 14 days of culture (FIG. 6)): ~18,300 cells/cm^2 | growth rate ([1]; post-thaw treatment with 2 mM NAC, between days 7 and 11 (FIG. 6)): approximately 3100 cells/cm^2/day | cell number versus non-treated ([1]; post-thaw treatment with 2 mM NAC, sustained up to 2 weeks in culture (FIG. 6)): increase in cell number | cell density versus non-treated ([1]; post-thaw treatment with 6 mM NAC (FIG. 6)): lower cell densities | cell density versus non-treated ([1]; post-thaw treatment with 12 mM NAC (FIG. 6)): lower cell densities | expression of ASC identity markers CD29, CD73, CD90 and CD105 [2]: does not alter the expression of ASC identity markers | number of cells counted versus non-treated control ([3]; 6 mM NAC pretreatment, 24 hours and 4 days post-thaw): increased the number of cells counted at 24 hours and 4 days | cell number by cell density versus non-treated ([3]; 6 mM NAC pretreatment, 24 hours post-seeding after thaw (FIG. 3)): increased cell numbers | cell numbers versus non-treated, two donors ([3]; 6 mM NAC pretreatment, donor A and donor B, from 24 hours post-seeding, maintained for a week (FIG. 5)): increase in cell numbers | post-thaw recovery (viable adhered cell number over seeding density) ([3]; ASCs pretreated with 6 mM NAC (FIG. 4A), non-treated cells not recovered at 1 day): recovered after 1 day of post-thaw culture | number of viable cells ([3]; 1 day of culture post-thaw (FIG. 4A)): ~5,000 cells/cm^2 | number of viable cells ([3]; 4 days of culture post-thaw (FIG. 4A)): ~12,500 cells/cm^2 | improvement of growth rate relative to non-treated cells ([3]; ASCs pretreated with 6 mM NAC, between days 1 and 4 of post-thaw culture): about 1.25 fold | growth rate ([3]; ASCs pretreated with 6 mM NAC, between days 1 and 4 of post-thaw culture (FIG. 4A)): approximately 2500 cells/cm^2/day | ASC-mediated upregulation of CD206 and CD163 on mDC [4]: this upregulation was intact; also recorded: did not alter these effects
